The source of these data is paper PMC10145310, “Optimization of Ultrasonic-Assisted Extraction of α-Glucosidase Inhibitors from Dryopteris crassirhizoma Using Artificial Neural Network and Response Surface Methodology” (Metabolites, 2023).

The subject of test [1] is RAW264.7 cells. On the set-up: method as in PMID 34971945. The settings on record: RAW264.7 cells induced with lipopolysaccharide; cited from earlier work.
Test [2] deals with T1, α-glucosidase (Saccharomyces cerevisiae, UniProt P53341).
T1 construct: purchased Merck (Germany) G5003
Nature of the test: α-glucosidase inhibition assay (4-nitrophenyl-D-glucopyranoside substrate, 405 nm). As to conditions: for inhibition at 100 µM: compound at 100 µM, mean ± SEM, triplicate. The class given is biochemical. How it is done: The α-glucosidase assay was performed as previously described. First, 130 μL of α-glucosidase (0.16 unit/mL) in 0.1 mM phosphate buffer (pH 6.8) was added to a 96-well plate with 20 μL of test compounds dissolved in dimethylsulfoxide. Then, 50 μL of 1 mM substrate (4-nitrophenyl-D-glucopyranoside) in the buffer was added to the mixture. The intensity of p-nitrophenol converted from 4-nitrophenyl-D-glucopyranoside by α-glucosidase was measured after […] at 405 nm using Infinite 200 PRO spectrophotometer (Tecan, Zürich, Switzerland). (1) Inhibitory activity rate (%)=[(ΔC−ΔS)/ΔC]×100 where ΔC and ΔS are the intensity of control and inhibitor after 20 min, respectively. […] The inhibitory effect was elucidated via triplicate independent experiments. […] Statistical differences were investigated using one-way ANOVA and Duncanʹs test with a p-value < 0.05. SigmaPlot 10.0 (Systat Software Inc., San Jose, CA, USA) was used to analyze the inhibition results.

Test [3] has as its system PTP1B. Also noted: method as in PMID 34416263. As to conditions: previous studies; cited from earlier work.
Test [4] addresses β-glucuronidase. Also noted: method as in PMID 36295840. As to conditions: previous studies; cited from earlier work.
Test [5] deals with platelet aggregation induced by arachidonic acid. Also noted: method as in PMID 31200488. As to conditions: cited from earlier work.
Test [6] has as its system platelet aggregation induced by collagen. Also noted: method as in PMID 31200488. The settings on record: cited from earlier work.
In test [7] the test system is SARS-CoV-2. On the set-up: method as in PMID 35214108. The settings on record: Vero cells, immunofluorescence-based antiviral assays; cited from earlier work.
In test [8] the test system is influenza A virus H1N1. Also noted: method as in PMID 34971945. As to conditions: cited from earlier work.

T1 sequence (P53341 whole entry): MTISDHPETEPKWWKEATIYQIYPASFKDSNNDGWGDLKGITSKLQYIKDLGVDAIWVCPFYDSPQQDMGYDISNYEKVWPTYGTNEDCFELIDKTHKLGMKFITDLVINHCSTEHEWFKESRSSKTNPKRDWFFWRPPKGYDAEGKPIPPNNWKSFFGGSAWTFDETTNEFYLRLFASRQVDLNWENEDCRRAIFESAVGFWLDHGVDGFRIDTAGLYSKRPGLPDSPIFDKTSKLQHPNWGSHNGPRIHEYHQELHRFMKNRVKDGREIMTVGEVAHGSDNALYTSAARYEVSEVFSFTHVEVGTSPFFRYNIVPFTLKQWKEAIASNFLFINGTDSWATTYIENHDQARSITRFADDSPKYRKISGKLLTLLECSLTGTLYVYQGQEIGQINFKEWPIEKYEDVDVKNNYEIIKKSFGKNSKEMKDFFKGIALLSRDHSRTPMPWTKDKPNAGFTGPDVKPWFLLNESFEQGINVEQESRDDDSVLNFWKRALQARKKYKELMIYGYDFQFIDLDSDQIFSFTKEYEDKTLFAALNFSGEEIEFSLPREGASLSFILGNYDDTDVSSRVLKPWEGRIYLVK

On to 3″-epi-dryoptol G, for which the “effect on production of nitric oxide and secretion of IL-1β and IL-18” value in test [1] is on record as “significant inhibitory effects”.

As to `C[C@H]1O[C@H](O[C@H]2[C@H](O)[C@@H](O)[C@@H](O[C@H]3[C@H](O)[C@@H](O)C(O)O[C@@H]3CO)O[C@@H]2CO)[C@H](O)[C@@H](O)[C@@H]1N[C@H]1C=C(CO)[C@@H](O)[C@H](O)[C@H]1O` (stereo partly shown) [Acarbose, acarbose], in test [2], testing at 100 µM gave an inhibition of 21.7 ± 1.43%.

Regarding `CCC(=O)c1c(O)c(C)c(O)c(CC2=C(O)C(C)(C)C(O)=C(C(C)=O)C2=O)c1O` [Compound 1, flavaspidic acid AP], the inhibition at 100 µM in test [2] is < 50%.

Consider `CCCC(=O)c1c(O)cc(O)c(Cc2c(O)c(CC3=C(O)C(C)(C)C(O)=C(C(C)=O)C3=O)c(O)c(C(=O)CCC)c2O)c1O` [Compound 2, nortrisflavaspidic acid ABB], for which the IC50 was 34 ± 0.14 µM in test [2], 1.19 ± 0.13 µM in test [3] and 8 ± 1.8 µM in test [4]. In test [2], the inhibition at 100 µM was > 50%.

On to `CCCC(=O)c1c(O)cc(O)c(C)c1O` [butyryl-3-methylphloroglucinol], for which the “inhibition of platelet aggregation, ratio” value in test [5] was 89.51%; in test [6], 92.36%.

As to dryocrassin ABBA, in test [7], the “inhibitory activity against SARS-CoV-2 infection” value is listed as “dose-dependent inhibitory activity”.

For dryoptol G, in test [1], the “effect on production of nitric oxide and secretion of IL-1β and IL-18” value is reported as “significant inhibitory effects”.

For filixic acid ABA, the “inhibitory activity against SARS-CoV-2 infection” value in test [7] is reported as “dose-dependent inhibitory activity”. In test [8], the “antiviral effect against influenza A virus H1N1” value is given as “responsible for the antiviral effect”.
